# According to PMC11171218, “N-Benzylated 5-Hydroxybenzothiophene-2-carboxamides as Multi-Targeted Clk/Dyrk Inhibitors and Potential Anticancer Agents” (Cancers, 2024):
# Assays:
# [1] = system: A549 cells; test: CCK-8 cell viability, A549; type: cell-based; settings: Homo sapiens, 72 h, CCK-8, mean ± S.E.M. (n = 3), read-out: A549 % Inh. at μM
# Method: (§1) All cells were purchased from Bioresource Collection and Research Center (Hsinchu, Taiwan) and cultured in corresponding media supplemented with 10% fetal bovine serum, 1 × Antibiotic-Antimycotic at 37 °C in a humidified incubator with 5% CO2. […] T24 cells were cultured in McCoy’s 5a media. IEC-6 cells were cultured in DMEM media supplemented with 5% fetal bovine serum, 1 × Antibiotic–Antimycotic, and 0.1 unit/mL insulin.
# (§2) Cells were incubated with the Cell Counting Kit-8 (CCK-8) reagent (TargetMol, Boston, MA, USA) at 37 °C for 2 h. The cell viability was determined by spectrophotometer at 450 nm.
# [2] = biological target: Clk2 (Homo sapiens, UniProt P49760); test: Z'-LYTE kinase inhibition assay, Clk2; type: biochemical; settings: for inhibition at 1 µM: 1 µM compound, screening by Thermo Fisher Scientific; for IC50: ATP concentration equivalent to Km
# Text: (§3) 3. Experimental procedure for protein kinases and inhibition assays.
# (§4) 3.1 The Z ́ -LYTE biochemical assay for screening and IC 50 determination for Clk1, Dyrk1A, Dyrk1B, Clk2 and Clk3 kinases.
# (§5) The assay employs a fluorescence-based, coupled-enzyme format and is based on the differential sensitivity of phosphorylated and non-phosphorylated peptides to proteolytic cleavage. The peptide substrate is labeled with two fluorophores-one at each end-that make up a FRET pair. In the primary reaction, the kinase transfers the gamma-phosphate of ATP to a single tyrosine, serine, or threonine residue in a synthetic FRET-peptide. In the secondary reaction, a site-specific protease recognizes and cleaves non-phosphorylated FRET-peptides. Phosphorylation of FRET-peptides suppresses cleavage by the Development Reagent. Cleavage disrupts FRET between the donor (i.e., coumarin) and acceptor (i.e., fluorescein) fluorophores on the FRET-peptide, whereas uncleaved, phosphorylated FRET-peptides maintain FRET. A ratiometric method, which calculates the ratio (the Emission Ratio) of donor emission to acceptor emission after excitation of the donor fluorophore at 400 nm, is used to quantitate reaction progress. Both cleaved and uncleaved FRET-peptides contribute to the fluorescence signals and therefore to the Emission Ratio. The extent of phosphorylation of the FRET-peptide can be calculated from the Emission Ratio. The Emission Ratio will remain low if the FRET-peptide is phosphorylated (i.e., no kinase inhibition) and will be high if the FRET-peptide is non-phosphorylated (i.e., kinase inhibition).
# (§6) The IC 50 values were determined for compounds displaying significant % inhibition in the screening step. IC 50 determination was done through testing at a range of concentrations with two […]
# (§7) two independent experiments. […]
# Development Reagent A is added.
# 3.1.4 Clk2 kinase assay specific conditions:
# The 2X Clk2 / Ser/Thr 06 mixture is prepared in 50 mM HEPES pH 7.5, 0.01% BRIJ-35, 10 mM […]
# Ser/Thr 06 in 50 mM HEPES pH 7.5, 0.01% BRIJ-35, 10 mM MgCl2, 1 mM EGTA. […]
# (§8) MgCl2, 1 mM EGTA, 0.02% NaN3. […]
# [3] = system: HCT-116 cells; test: CCK-8 cell viability, HCT-116; type: cell-based; settings: Homo sapiens, 72 h; for inhibition at 20 µM: HCT-116, read-out: HCT-[…] Inh. at 20 μM, CCK-8, mean ± S.E.M. (n = 3); for IC50: HCT-116, read-out: HCT-116 IC50 in µM, CCK-8, 50% inhibition of viability
# Method: as §1, §2
# [4] = biological target: Clk3 (Homo sapiens, UniProt P49761); test: Z'-LYTE kinase inhibition assay, Clk3; type: biochemical; settings: 1 µM compound; screening by Thermo Fisher Scientific
# Text: as §3, §4, §5, §6, §7
# (§9) Development Reagent A is added. […]
# 3.1.5 Clk3 kinase assay specific conditions:
# The 2X Clk3 / Ser/Thr 18 mixture is prepared in 50 mM Tris pH 8.5, 0.01% BRIJ-35, 10 mM […]
# as §8
# of Development Reagent A is added.
# [5] = system: U87 cells; test: CCK-8 cell viability, U87; type: cell-based; settings: Homo sapiens, U-87 MG, 72 h; for inhibition at 20 µM: CCK-8, mean ± S.E.M. (n = 3), read-out: U87 % Inh. at μM
# Method: as §1, §2
# [6] = biological target: Dyrk1A (Homo sapiens, UniProt Q13627); test: Z'-LYTE kinase inhibition assay, Dyrk1A; type: biochemical; settings: for IC50: ATP conc. equivalent to Km; for inhibition at 1 µM: read-out: Dyrk1A % Inh. At 1 µM
# Text: as §3, §4, §5, §6, §7
# 3.1.2 Dyrk1A kinase assay specific conditions:
# The 2x Dyrk1A / Ser/Thr 18 mixture is prepared in 50 mM HEPES pH 7.5, 0.01% BRIJ-35, 10 […]
# 2 µM Ser/Thr 18 in 50 mM HEPES pH 7.5, 0.01% BRIJ-35, 10 mM MgCl 2, 1 mM EGTA. […]
# as §9, §8
# [7] = system: T24 cells; test: CCK-8 cell viability, T24; type: cell-based; settings: Homo sapiens, T-24, 72 h; for inhibition at 20 µM: CCK-8, mean ± S.E.M. (n = 3), read-out: T24 % Inh. at μM; for IC50: CCK-8, 50% inhibition of viability
# Method: as §1, §2
# [8] = system: T24 cells; test: Apoptosis assay (Annexin V-FITC/PI, flow cytometry); type: cell-based, human; settings: 24 h
# Method: Apoptosis was examined by Annexin V-FITC/PI Apoptosis Kit (Cat# E-CK-A211, Elabscience, Houston, TX, USA) following the manufacturer’s protocol and analyzed by flow cytometry.
# Figure 3 Annexin V and PI staining in T24 cells to investigate if compounds 12 and 17 could induce apoptotic death. T24 cells were treated with DMSO (0.1%), 12 (30–50 µM), or 17 (30–50 µM) for 24 h and then stained with Annexin V-FITC antibody and PI. The Annexin V-positive apoptotic cells were monitored using flow cytometry. All data are expressed as the mean ± S.E.M. (n = 3). * p < 0.05, ** p < 0.01 compared with the DMSO group. […] Best reading, upper row: Q1-UL 0.1%, Q1-UR 4.5%, Q1-LL 84.7%, Q1-LR 10.7%. Lower row: Q1-UL 0.2%, Q1-UR 5.1%, Q1-LL 84.9%, Q1-LR 9.8%. They are left out of lines because no compound is present.
# [9] = Cell viability in normal cells, IEC-6; type: cell-based; settings: rat, IEC-6 rat intestine epithelial cells (normal cells); for viability at 20 µM: mean (n = 3); for IC50: 50% inhibition
# Method: as §1, §2
# [10] = Cell viability in normal cells, HaCaT; type: cell-based; settings: human, HaCaT normal human keratinocytes; for viability at 20 µM: mean (n = 3); for IC50: 50% inhibition
# Method: as §1, §2
# Sequence of Clk2 (P49760 whole entry): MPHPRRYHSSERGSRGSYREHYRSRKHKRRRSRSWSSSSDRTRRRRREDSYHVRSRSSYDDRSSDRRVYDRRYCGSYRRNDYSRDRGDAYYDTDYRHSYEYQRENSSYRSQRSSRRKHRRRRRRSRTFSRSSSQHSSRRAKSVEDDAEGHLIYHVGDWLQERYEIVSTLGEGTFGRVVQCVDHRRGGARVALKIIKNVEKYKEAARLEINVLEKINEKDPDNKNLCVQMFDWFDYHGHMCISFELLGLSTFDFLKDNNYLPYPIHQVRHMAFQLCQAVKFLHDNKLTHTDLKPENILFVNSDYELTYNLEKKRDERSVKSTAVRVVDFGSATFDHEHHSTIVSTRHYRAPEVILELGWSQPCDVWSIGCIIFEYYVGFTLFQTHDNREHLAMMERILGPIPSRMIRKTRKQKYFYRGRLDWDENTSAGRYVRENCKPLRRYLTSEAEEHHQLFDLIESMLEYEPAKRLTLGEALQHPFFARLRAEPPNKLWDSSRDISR
# Sequence of Clk3 (P49761 whole entry): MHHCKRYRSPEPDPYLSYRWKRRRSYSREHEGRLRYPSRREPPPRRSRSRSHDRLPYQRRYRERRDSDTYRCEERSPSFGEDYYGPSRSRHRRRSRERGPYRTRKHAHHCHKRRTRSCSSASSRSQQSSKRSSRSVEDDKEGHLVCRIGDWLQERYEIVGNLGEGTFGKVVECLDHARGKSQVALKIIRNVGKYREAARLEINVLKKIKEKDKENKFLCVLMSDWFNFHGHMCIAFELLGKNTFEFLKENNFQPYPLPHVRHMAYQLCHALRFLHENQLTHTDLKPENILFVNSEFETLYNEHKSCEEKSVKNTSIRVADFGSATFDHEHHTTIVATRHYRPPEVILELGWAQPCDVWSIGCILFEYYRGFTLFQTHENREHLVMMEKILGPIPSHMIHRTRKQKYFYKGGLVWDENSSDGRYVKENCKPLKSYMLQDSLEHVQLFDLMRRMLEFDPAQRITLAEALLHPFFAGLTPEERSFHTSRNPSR
Compound,inhibition at 20 µM [1],inhibition at 1 µM [2],inhibition at 20 µM [3],inhibition at 1 µM [4],inhibition at 20 µM [5],IC50 [6],inhibition at 1 µM [6],inhibition at 20 µM [7],IC50 [7],Apoptotic cell population (Annexin V-positive) ([8]; 50 µM),viability at 20 µM [9],IC50 [9],IC50 [2],IC50 [3],"IC50 ([5]; CCK-8, 50% inhibition of viability)",viability at 20 µM [10],IC50 [10],Apoptotic cell population (Annexin V-positive) ([8]; 30 and 50 μM)
"O=C(NCc1cccc(Cl)c1)c1cc2cc(O)ccc2s1 [Compound 3, N-(3-Chlorobenzyl)-5-hydroxybenzo[b]thiophene-2-carboxamide]",54.7 ± 3.77%,46%,25.9 ± 2.54%,22%,32.2 ± 4.76%,0.751 µM,60%,68.6 ± 3.95%,14 µM,–,–,–,–,–,–,–,–,–
"O=C(NCc1cccc(F)c1)c1cc2cc(O)ccc2s1 [Compound 6, N-(3-Fluorobenzyl)-5-hydroxybenzo[b]thiophene-2-carboxamide]",36.5 ± 1.57%,38%,60.1 ± 3.11%,27%,21 ± 5.07%,0.666 µM,60%,49.3 ± 6.04%,–,–,–,–,–,–,–,–,–,–
"COc1ccccc1CNC(=O)c1cc2cc(O)ccc2s1 [Compound 11, 5-Hydroxy-N-(2-methoxybenzyl)benzo[b]thiophene-2-carboxamide]",34.7 ± 3.91%,50%,0%,24%,18.1 ± 0.81%,0.565 µM,64%,55.3 ± 3.3%,–,–,–,–,–,–,–,–,–,–
"COc1cccc(CNC(=O)c2cc3cc(O)ccc3s2)c1 [Compound 12, 5-Hydroxy-N-(3-methoxybenzyl)benzo[b]thiophene-2-carboxamide]",41 ± 8.96%,62%,75.7 ± 0.31%,26%,60.1 ± 6.16%,0.536 µM,65%,100%,6 µM,increased the apoptotic cell population,96%,> 20 µM,0.617 µM,6.4 µM,16.5 µM,67.6%,> 20 µM,–
"O=C(NCc1cc(F)cc(F)c1)c1cc2cc(O)ccc2s1 [Compound 17, N-(3,5-Difluorobenzyl)-5-hydroxybenzo[b]thiophene-2-carboxamide]",38.8 ± 4.06%,62%,67.6 ± 0.58%,26%,47.3 ± 5.65%,0.495 µM,67%,59.9 ± 2.05%,14.9 µM,–,76.8%,> 20 µM,0.708 µM,8.1 µM,–,64.9%,> 20 µM,dose-dependently increased the apoptotic cell population
